Experiment: solubility of rod like amorphous particles compared to Form I
Settings: qualitative statement, no method or figures given

solubility: enhanced solubility compared to Form I
SMILES: CC(C)CN(C[C@@H](OP(=O)(O)O)[C@H](Cc1ccccc1)NC(=O)O[C@H]1CCOC1)S(=O)(=O)c1ccc(N)cc1 [rod like amorphous particles, calcium (2R, 3S)-1-(4-amino-N-isobutyl-phenylsulfonamido)-4-phenyl-3-(((S)-tetrahydrofuran-3-yloxy)carbonylamino)butan-2-yl phosphate]

— patent US20110165202A1, “SOLID STATE FORMS OF FOSAMPRENAVIR CALCIUM SALT AND PROCESSES FOR PREPARATION THEREOF” (PLIVA HRVATSKA D.O.O., priority 2010, published 2011)
